Assays:
[1] = target: T1, α1a (bovine) adrenoreceptor (Bos taurus, UniProt P18130); assay: [3H]-prazosin radioligand binding, cloned α1a (bovine) adrenoreceptor in LTK cells; conditions: cloned receptor in LTK cell membranes, [3H]prazosin 0.2 nM
T1 sequence (P18130 1-466): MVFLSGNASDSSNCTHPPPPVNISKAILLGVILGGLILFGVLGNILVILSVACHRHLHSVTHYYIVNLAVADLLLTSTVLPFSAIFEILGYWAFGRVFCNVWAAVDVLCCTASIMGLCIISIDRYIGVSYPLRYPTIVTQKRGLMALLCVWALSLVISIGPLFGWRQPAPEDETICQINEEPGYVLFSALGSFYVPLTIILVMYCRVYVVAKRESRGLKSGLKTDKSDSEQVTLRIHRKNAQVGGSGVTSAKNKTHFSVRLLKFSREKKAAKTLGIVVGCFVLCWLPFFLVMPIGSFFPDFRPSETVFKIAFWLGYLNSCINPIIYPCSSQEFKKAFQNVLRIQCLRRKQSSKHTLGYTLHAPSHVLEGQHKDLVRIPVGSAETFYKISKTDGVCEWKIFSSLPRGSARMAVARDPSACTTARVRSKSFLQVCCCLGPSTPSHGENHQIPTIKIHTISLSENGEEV
Method: (§1) Representative compounds of the invention were evaluated for α adrenoreceptor binding affinity in vitro using [^3H]-prazosin as the radioligand and following four cloned α1, adrenoreceptors expressed in LTK cells: α1a (rat), α1a (bovine), α1b : (hampster), and α1d (rat).
(§2) The cDNA clones encoding the α1, adrenoreceptors were obtained from TULCO (Triangle Universities Licensing Consortium, Research Triangle Park, N.C.) and inserted into the eukaryotic expression vector SnaB30. In this vector, expression of the adrenoreceptor gene is under the transcriptional control of an SV40 early promoter. Positive drug selection is provided by a neomycin-resistance gene. Mouse fibroblast cells (LTK) were transfected with the α1 expression plasmids and grown in Dulbecco's modified Eagle's medium (DMEM) containing 10% fetal calf serum and 30 μM G418. Stable G418-resistant parental lines were generated with successful expression of adrenoreceptor protein monitored using radioligand binding techniques. Stable single cell clones derived from the parental lines were screened in adrenoreceptor binding assays to identify clones having high adrenoreceptor density. Roller bottle cultures of the cloned lines were used to provide cell membranes for subsequent adrenoreceptor binding characterization studies. A cell line containing the SnaB30 vector expressing the human erythropoietin gene served as a negative control.
(§3) For adrenoreceptor binding assays, large scale membrane preparations were utilized in which 6 million cells were seeded into small (450 cm^2) Coming tissue culture roller bottles. DMEM (200 mL) containing 10% fetal calf serum and 300 μM G418 were added to each roller bottle. A 95% air/5% CO2 gas mixture (sterile) was injected into each roller bottle prior to sealing, and the bottles were then incubated at 37° C. on a roller rack for 5 days. Cells were refed with fresh medium after 3 days in culture.
(§4) On the fifth day of culture, growth medium was removed from cells grown in roller bottles, and the cells were washed twice with PBS (Sigma, 120 mM NaCl, 2.7 mM KCl, 10 mM Na2HPO4-NaH2PO4, pH=7.4). Cells were detached from the roller bottles by incubating for 15 minutes at 37° C. in a Tris-EDTA solution (10 mM Tris, 100 mM NaCl, 1 mM EDTA, pH=7.4). The cell suspension from each roller bottle was decanted into tared centrifuge tubes and kept on ice. An aliquot of each cell suspension was generally taken for cell counting. Cells were centrifuged at 3000×G for 5 minutes at 2-4° C., washed with PBS and recentrifuged. The supernatant was decanted, and the pellet was weighed to determine the wet weight of cells. Cells were washed a final time in 40 vol 5 mM Tris-HCl, 5 mM EDTA, pH=7.7 and centrifuged at 40,000×G for 10 minutes (“vol” indicates volume/weight, e.g., a “vol” of 40 would indicate that the one gram of cells were washed with 40 mls of buffer). Cells were homogenized in of 50 mM Tris-HCl, 5 mM EDTA (pH=7.4) (10 mL) and diluted to 40 mL/tube. Homogenates were centrifuged at 40,000×G for 10 minutes. The supernatant was decanted and the pellets rehomogenized in 50 mM Tris-HCl (pH=7.4) and centrifuged as before. The supernatant was decanted and the homogenate was resuspended in 6.25 volumes (per gram wet weight) of 50 mM Tris-HCl and aliquots of the pooled homogenates frozen in liquid N2 and,stored at −70° C. until the time of assay.
(§5) Receptor binding assays for α1 adrenoreceptors were performed essentially as described by Greengrass and Bremner (Eur. J. Pharmacol. 55: 323-326 (1979)). […] Following equilibration, bound radioligand was separated from free on GF/B filters (presoaked in 0.5% polyethyleneimine) using ither a Brandel or Packard cell harvester. Radioactivity was determined by standard liquid scintillation techniques. Data were analyzed as previously described (Hancock, A. A., Kyncl, J. J., Martin, Y. C. and DeBemardis, J. F., J. Receptor Res. 8: 23-46 (1988)). The in Table 1.

α1d (rat) adrenoreceptor = target: T2, α1d (rat) adrenoreceptor (Rattus norvegicus, UniProt P23944); assay: [3H]-prazosin radioligand binding, cloned α1d (rat) adrenoreceptor in LTK cells; conditions: cloned receptor in LTK cell membranes, [3H]prazosin 0.2 nM
T2 sequence (P23944 1-561): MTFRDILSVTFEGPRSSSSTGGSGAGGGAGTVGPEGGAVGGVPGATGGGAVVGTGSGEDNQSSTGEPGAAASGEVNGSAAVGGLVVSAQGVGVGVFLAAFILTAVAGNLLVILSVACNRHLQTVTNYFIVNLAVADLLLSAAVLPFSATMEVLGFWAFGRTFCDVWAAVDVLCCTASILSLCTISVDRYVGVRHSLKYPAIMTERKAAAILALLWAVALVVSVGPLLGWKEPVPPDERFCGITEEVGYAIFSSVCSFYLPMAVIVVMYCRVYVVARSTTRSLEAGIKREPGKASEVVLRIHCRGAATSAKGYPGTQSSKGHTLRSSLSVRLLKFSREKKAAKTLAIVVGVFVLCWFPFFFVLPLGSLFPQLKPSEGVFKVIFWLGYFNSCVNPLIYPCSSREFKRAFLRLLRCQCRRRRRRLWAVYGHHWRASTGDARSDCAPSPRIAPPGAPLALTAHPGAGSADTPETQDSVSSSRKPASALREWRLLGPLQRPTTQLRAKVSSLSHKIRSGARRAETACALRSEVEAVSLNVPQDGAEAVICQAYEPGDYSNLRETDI
Method: as §1, §2, §3, §4, §5

| Compound | Ki [1] [nM] | Ki (α1d (rat) adrenoreceptor) [nM] | melting point [°C] |
| --- | --- | --- | --- |
| Cl.Cl.O=c1[nH]c2c(sc3cccnc32)c(=O)n1CCCCN1CCN2c3ccccc3OCC2C1 (single isomer, unassigned; (+)) [Example 3, (+) 3-[4-(1,2,4a,5-tetrahydropyrazino[2,1-c][1,4]benzoxazin-3(4H)-yl)butyl]pyrido[2′, 3′:4,5]thieno[3,2-d]pyrimidine-2,4(1H,3H)-dione dihydrochloride] | 2.09 | 5 | 278 to 280 |
| COc1cccc2c1N1CCN(CCn3c(=O)[nH]c4c(sc5ncc(Cl)nc54)c3=O)CC1CO2.Cl.Cl (single isomer, unassigned; (+)) [Example 8, (+) 3-[2-(10-methoxy-1,2,4a,5-tetrahydropyrazino[2,1-c][1,4]benzoxazin-3(4H)-yl)ethyl]-8-chloropyrazino[2′,3′:4,5]thieno[3,2-d]pyrimidine-2,4(1H,3H)-dione dihydrochloride] | 0.463 | 5.08 | 280 to 283 |
| COc1cccc2c1N1CCN(CCCCn3c(=O)[nH]c4c(sc5ncc(Cl)nc54)c3=O)CC1CO2.Cl.Cl (single isomer, unassigned; (-)) [Example 12, (−) 3-[4-(10-methoxy-1,2,4a,5-tetrahydropyrazino[2,1-c][1,4]benzoxazin-3(4H)-yl)butyl]-8-chloropyrazino[2′,3′:4,5]thieno[3,2-d]pyrimidine-2,4(1H,3H)-dione dihydrochloride] | 0.41 | 1.15 | 198 to 201 |
| Cl.Cl.O=c1[nH]c2c(sc3ncccc32)c(=O)n1CCCCN1CCN2c3ccccc3OCC2C1 (single isomer, unassigned; (-)) [Example 6, (−) 3-[4-(1,2,4a,5-tetrahydropyrazino[2,1-c][1,4]benzoxazin-3(4H)-yl)butyl]pyrido[3′, 2′:4,5]thieno[3,2-d]pyrimidine-2,4(1H,3H)-dione dihydrochloride] | 5.51 | 16.9 | 290 to 293 |
